Our source for the IC50 values is patent US10208059B2, “Heterocyclic modulators of HIF activity for treatment of disease” (Board of Regents, University of Texas System, priority 2012, dated 2019).

Counter-ions that a name gives are not always drawn.

This experiment concerns 293T-HRE-GFP-luc cells. Description: Cell-based reporter assay for IC50 determinations. Conditions: hypoxia 6 hrs (1% O2), luminescence, read-out: IC50 Classification. How it is done: Cell-Based Reporter Assay for IC50 Determinations
293T-HRE-GFP-luc cells were routinely maintained in DMEM media (high glucose version with GlutaMAX and HEPES, Gibco, catalog #10564) supplemented with 10% fetal bovine serum and 2 μg/mL puromycin (Invitrogen, catalog #A11138-03) using a humidified incubator (normoxia conditions consisting of 37° C., 5% CO2 and ambient O2).
In preparation for the reporter assay, cells were harvested and resuspended in DMEM media (high glucose version with GlutaMAX and HEPES) supplemented with 10% fetal bovine serum. Cells were inoculated into 384-well white Culturplates (Perkin Elmer catalog #6007680) at a density of 12,000 cells/well in a volume of 30 μL. The microplates were incubated overnight (approximately 17-19 hours) at 37° C. with 5% CO2 and ambient O2. Stock solutions of the test compounds were prepared in DMSO (Sigma, Catalog #D2650) and serially diluted 1:3 using DMSO. Compounds were additionally diluted (1:50) with culturemedium and 10 μL were added per well to the Culturplate. Following a 30 min. incubation under normoxia conditions, the plates were incubated in hypoxia for 6 hrs. (37° C., 5% CO2 and 1% O2). Steadylite Plus (Perkin Elmer, catalog #6016751) was then added (40 μL/well), the plates were mixed on an orbital shaker at room temperature in the dark for 15 min., and luminescence was measured using an Envision plate reader (Perkin Elmer). IC50 values were calculated using a four-parameter logistic curve fit. Results are shown below in Table 2; ND indicates no data.
(In a reporter assay the amount or activity of a reporter protein is the signal.)

As usually defined, the IC50 is the point on the concentration scale where inhibition reaches its midpoint. On to `Cc1nc(-c2nc(-c3ccc(OC(F)(F)F)cc3)no2)nn1Cc1ccnc(N2CCNCC2)c1` [Example 1, 4-(4-((5-Methyl-3-(3-(4-(trifluoromethoxy)phenyl)-1,2,4-oxadiazol-5-yl)-1H-1,2,4-triazol-1-yl)methyl)pyridin-2-yl)piperazin-1-ium trifluoroacetate], for which the IC50 fell in the range of 0.1 to 1 µM. For the compound `Cc1nc(-c2ccc(-c3ccccc3)o2)nn1Cc1ccnc(N2CCN(C)CC2)c1` [Example 3], the IC50 fell in the range of 1 to 10 µM. The result for `FC(F)(F)Oc1ccc(-c2noc(-c3nc(-c4cccnc4)n(Cc4ccccc4)n3)n2)cc1` [Example 4, 3-(1-Benzyl-3-(3-(4-(trifluoromethoxy)phenyl)-1,2,4-oxadiazol-5-yl)-1H-1,2,4-triazol-5-yl)pyridin-1-ium trifluoroacetate] reads less than 0.1 µM. As to `Cc1nc(-c2nnc(-c3ccccc3)o2)nn1Cc1ccnc(N2CCC(C)(C)CC2)c1` [Example 5, 2-(4,4-Dimethylpiperidin-1-yl)-4-((5-methyl-3-(5-phenyl-1,3,4-oxadiazol-2-yl)-1H-1,2,4-triazol-1-yl)methyl)pyridin-1-ium trifluoroacetate], the IC50 was 1 to 10 µM. As to `Cc1nc(-c2nnc(-c3ccc(OC(F)(F)F)cc3)o2)nn1Cc1cccc(N2CCN(C)CC2)c1` [Example 6, 1-Methyl-4-(3-((5-methyl-3-(5-(4-(trifluoromethoxy)phenyl)-1,3,4-oxadiazol-2-yl)-1H-1,2,4-triazol-1-yl)methyl)phenyl)piperazin-1-ium trifluoroacetate], the IC50 was less than 0.1 µM. Take `Cc1nc(-c2nnc(-c3ccc(OC(F)(F)F)cc3)o2)nn1Cc1ccnc(N2CCN(C)CC2)c1` [Example 7, 1-Methyl-4-(4-((5-methyl-3-(5-(4-(trifluoromethoxy)phenyl)-1,3,4-oxadiazol-2-yl)-1H-1,2,4-triazol-1-yl)methyl)pyridin-1-ium-2-yl)piperazin-1-ium trifluoroacetate]: the IC50 was 0.1 to 1 µM. For `Cc1nc(-c2nnc(-c3ccc(C(C)(C)C)cc3)o2)nn1Cc1cccc(N2CCN(C)CC2)c1` [Example 8, 2-(4-(tert-Butyl)phenyl)-5-(5-methyl-1-(3-(4-methylpiperazin-1-yl)benzyl)-1H-1,2,4-triazol-3-yl)-1,3,4-oxadiazole], the IC50 was less than 0.1 µM. To `Cc1nc(-c2nc(-c3ccc(C(C)(C)C)cc3)no2)nn1Cc1ccnc(N2CCN(C)CC2)c1` [Example 9, 3-(4-(tert-Butyl)phenyl)-5-(5-methyl-1-((2-(4-methylpiperazin-1-yl)pyridin-4-yl)methyl)-1H-1,2,4-triazol-3-yl)-1,2,4-oxadiazole] belongs less than 0.1 µM; to `Cc1nc(-c2nc(-c3ccc(OC(F)(F)F)cc3)no2)nn1Cc1ccnc(N2CCOCC2)c1` [Example 10, 4-(4-((5-Methyl-3-(3-(4-(trifluoromethoxy)phenyl)-1,2,4-oxadiazol-5-yl)-1H-1,2,4-triazol-1-yl)methyl)pyridin-2-yl)morpholine], less than 0.1 µM. Consider `Cc1nc(-c2nc(-c3ccc(OC(F)(F)F)cc3)no2)nn1Cc1cccc(NCCN(C)C)c1` [Example 11, N,N-Dimethyl-2-((3-((5-methyl-3-(3-(4-(trifluoromethoxy)phenyl)-1,2,4-oxadiazol-5-yl)-1H-1,2,4-triazol-1-yl)methyl)phenyl)amino)ethanaminium trifluoroacetate], for which the IC50 fell in the range of 1 to 10 µM. In the case of `COC(=O)c1cccc(Cn2nc(-c3nc(-c4ccc(OC(F)(F)F)cc4)no3)nc2C)c1` [Example 12, Methyl 3-((5-methyl-3-(3-(4-(trifluoromethoxy)phenyl)-1,2,4-oxadiazol-5-yl)-1H-1,2,4-triazol-1-yl)methyl)benzoate], the IC50 was less than 0.1 µM. On to `Cc1nc(-c2nc(-c3ccc(OC(F)(F)F)cc3)no2)nn1Cc1cccc(C(=O)N2CCN(C)CC2)c1` [Example 13, (3-((5-Methyl-3-(3-(4-(trifluoromethoxy)phenyl)-1,2,4-oxadiazol-5-yl)-1H-1,2,4-triazol-1-yl)methyl)phenyl)(4-methylpiperazin-1-yl)methanone], for which the IC50 is less than 0.1 µM.

For `COCCCNC(=O)c1cccc(Cn2nc(-c3nc(-c4ccc(OC(F)(F)F)cc4)no3)nc2C)c1` [Example 14, N-(3-methoxypropyl)-3-((5-methyl-3-(3-(4-(trifluoromethoxy)phenyl)-1,2,4-oxadiazol-5-yl)-1H-1,2,4-triazol-1-yl)methyl)benzamide], the half-inhibitory concentration (IC50) was less than 0.1 µM. On to `Cc1ccc(Cn2nc(-c3nc(-c4ccc(OC(F)(F)F)cc4)no3)nc2C)cc1` [Example 15, 5-(5-Methyl-1-(4-methylbenzyl)-1H-1,2,4-triazol-3-yl)-3-(4-(trifluoromethoxy)phenyl)-1,2,4-oxadiazole], for which the IC50 was less than 0.1 µM. For `Cc1nc(-c2nc(-c3ccc(OC(F)(F)F)cc3)no2)nn1Cc1cn2ccccc2n1` [Example 16, 5-(1-(imidazo[1,2-a]pyridin-2-ylmethyl)-5-methyl-1H-1,2,4-triazol-3-yl)-3-(4-(trifluoromethoxy)phenyl)-1,2,4-oxadiazole], the IC50 fell in the range of 0.1 to 1 µM. As to `Cc1nc(-c2nc(-c3ccc(OC(F)(F)F)cc3)no2)nn1Cc1cnc(Cl)s1` [Example 17, 5-(1-((2-Chlorothiazol-5-yl)methyl)-5-methyl-1H-1,2,4-triazol-3-yl)-3-(4-(trifluoromethoxy)phenyl)-1,2,4-oxadiazole], the IC50 was in the range of 1 to 10 µM. As for `Cc1nc(-c2nc(-c3ccc(OC(F)(F)F)cc3)no2)nn1Cc1cnc(N2CCOCC2)s1` [Example 18, 4-(5-((5-Methyl-3-(3-(4-(trifluoromethoxy)phenyl)-1,2,4-oxadiazol-5-yl)-1H-1,2,4-triazol-1-yl)methyl)thiazol-2-yl)morpholine], the IC50 lay within 1 to 10 µM. To `Cc1nc(-c2nc(-c3ccc(OC(F)(F)F)cc3)no2)nn1Cc1ccnc(Cl)n1` [Example 19, 5-(1-((2-Chloropyrimidin-4-yl)methyl)-5-methyl-1H-1,2,4-triazol-3-yl)-3-(4-(trifluoromethoxy)phenyl)-1,2,4-oxadiazole] belongs 1 to 10 µM; to `Cc1nc(-c2nc(-c3ccc(OC(F)(F)F)cc3)no2)nn1Cc1ccnc(N2CCN(C)CC2)n1` [Example 20, 5-(5-Methyl-1-((2-(4-methylpiperazin-1-yl)pyrimidin-4-yl)methyl)-1H-1,2,4-triazol-3-yl)-3-(4-(trifluoromethoxy)phenyl)-1,2,4-oxadiazole], less than 0.1 µM. In the case of `Cc1nc(-c2nc(-c3ccc(S(C)(=O)=O)cc3)no2)nn1Cc1ccnc(N2CCN(C)CC2)c1` [Example 21, 1-Methyl-4-(4-((5-methyl-3-(3-(4-(methylsulfonyl)phenyl)-1,2,4-oxadiazol-5-yl)-1H-1,2,4-triazol-1-yl)methyl)pyridin-1-ium-2-yl)piperazin-1-ium bis-trifluoroacetate], the IC50 lay in the range of 1 to 10 µM.

As to `Cc1ccc(-c2noc(-c3nc(C)n(Cc4ccnc(N5CCN(C)CC5)c4)n3)n2)cc1` [Example 22, 1-Methyl-4-(4-((5-methyl-3-(3-(p-tolyl)-1,2,4-oxadiazol-5-yl)-1H-1,2,4-triazol-1-yl)methyl)pyridin-1-ium-2-yl)piperazin-1-ium bis-trifluoroacetate], the IC50 was 0.1 to 1 µM. As to `Cc1nc(-c2nc(-c3ccc(OC(F)F)cc3)no2)nn1Cc1ccnc(N2CCN(C)CC2)c1` [Example 23, 4-(4-((3-(3-(4-(Difluoromethoxy)phenyl)-1,2,4-oxadiazol-5-yl)-5-methyl-1H-1,2,4-triazol-1-yl)methyl)pyridin-1-ium-2-yl)-1-methylpiperazin-1-ium bis-trifluoroacetate], the IC50 was in the range of 0.1 to 1 µM. As for `Cc1nc(-c2nc(-c3ccc(OC(F)(F)F)cc3)no2)nn1Cc1ccccc1` [Example 24, 5-(1-Benzyl-5-methyl-1H-1,2,4-triazol-3-yl)-3-(4-(trifluoromethoxy)phenyl)-1,2,4-oxadiazole], the IC50 was in the range of 0.1 to 1 µM. In the case of `Cc1nc(-c2nc(-c3ccc(OC(F)(F)F)cc3)no2)nn1Cc1cccc(N2CCN(C)CC2)c1` [Example 25, 1-methyl-4-(3-((5-methyl-3-(3-(4-(trifluoromethoxy)phenyl)-1,2,4-oxadiazol-5-yl)-1H-1,2,4-triazol-1-yl)methyl)phenyl)piperazin-1-ium trifluoroacetate], the IC50 was less than 0.1 µM. The result for `Cc1nc(-c2nc(-c3ccc(OC(F)(F)F)cc3)no2)nn1Cc1ccnc(N2CCC(O)CC2)c1` [Example 26, 1-(4-((5-Methyl-3-(3-(4-(trifluoromethoxy)phenyl)-1,2,4-oxadiazol-5-yl)-1H-1,2,4-triazol-1-yl)methyl)pyridin-2-yl)piperidin-4-ol] reads less than 0.1 µM; that for `Cc1nc(-c2nc(-c3ccc(OC(F)(F)F)cc3)no2)nn1Cc1ccnc(N2CCC(C#N)CC2)c1` [Example 27, 1-(4-((5-Methyl-3-(3-(4-(trifluoromethoxy)phenyl)-1,2,4-oxadiazol-5-yl)-1H-1,2,4-triazol-1-yl)methyl)pyridin-2-yl)piperidine-4-carbonitrile], less than 0.1 µM. With `Cc1nc(-c2nc(-c3ccc(OC(F)(F)F)cc3)no2)nn1Cc1ccnc(N2CCCC2)c1` [Example 28, 5-(5-Methyl-1-((2-(pyrrolidin-1-yl)pyridin-4-yl)methyl)-1H-1,2,4-triazol-3-yl)-3-(4-(trifluoromethoxy)phenyl)-1,2,4-oxadiazole], the IC50 is less than 0.1 µM.
